Several values for one entry are separate records, joined by “and”; a condition that tells them apart may be missing. Equal values may be shown once. Square brackets hold non-standard residues; d marks the D form. Peptide text beside a SMILES is read from it. * marks the point of attachment. X1 = COc1ccc(COC(=O)*)cc1; Cbz = O=C(OCc1ccccc1)*; Boc = CC(C)(C)OC(=O)*; Bn = c1ccc(C*)cc1
Test system: LRF-induced luteinizing hormone (LH) release
Assay: In vitro LRF antagonist test in rat anterior pituitary cell cultures
Type: cell-based
Protocol: Nonapeptides of this invention are screened for LRF antagonist activity in vitro using rat anterior pituitary cell cultures as described by Vale et al. [Endocrinology, 91, 562 (1972)]. The inhibition of LRF-induced luteinizing hormone (LH) release into the culture medium is the endpoint in this in vitro bioassay. Active peptides are then tested in vivo by the procedures of Humphrey et al. [Endocrinology, 92, 1515 (1972)]. Antagonist activity is asessed by the inhibition of LRF-induced LH release in the female rat and LRF-induced ovulation in the rabbit.

[1] = Molar Conc. 1 × 10^-5, LRF 5 × 10^-10, first series (LRF Control 71.56)
[2] = Molar Conc. 1 × 10^-6, LRF 5 × 10^-10, first series (LRF Control 71.56)
[3] = Molar Conc. 1 × 10^-7, LRF 5 × 10^-10, first series (LRF Control 71.56)
[4] = Molar Conc. 1 × 10^-8, LRF 5 × 10^-10, first series (LRF Control 71.56)
[5] = Molar Conc. 1 × 10^-8, LRF 5 × 10^-10, second series of the compound
[6] = Molar Conc. 1 × 10^-9, LRF 5 × 10^-10, second series of the compound
[7] = Molar Conc. 2.5 × 10^-9, LRF 5 × 10^-10, second series of the compound
[8] = Molar Conc. 5 × 10^-9, LRF 5 × 10^-10, second series of the compound
[9] = Molar Conc. 1 × 10^-8, LRF 3.5 × 10^-10
[10] = Molar Conc. 1 × 10^-9, LRF 3.5 × 10^-10
[11] = Molar Conc. 2.5 × 10^-8, LRF 3.5 × 10^-10
[12] = Molar Conc. 2.5 × 10^-9, LRF 3.5 × 10^-10
[13] = Molar Conc. 2.5 × 10^-10, LRF 3.5 × 10^-10
[14] = Molar Conc. 6 × 10^-8, LRF 3.5 × 10^-10
[15] = Molar Conc. 6 × 10^-9, LRF 3.5 × 10^-10
[16] = Molar Conc. 6 × 10^-10, LRF 3.5 × 10^-10
[17] = Molar Conc. 2.5 × 10^-10, LRF 5 × 10^-10, second series of the compound
[18] = Molar Conc. 5 × 10^-10, LRF 5 × 10^-10, second series of the compound
[19] = Molar Conc. 1.2 × 10^-8, LRF 3.5 × 10^-10
[20] = Molar Conc. 2 × 10^-8, LRF 3.5 × 10^-10
[21] = Molar Conc. 2 × 10^-9, LRF 3.5 × 10^-10
[22] = Molar Conc. 4 × 10^-8, LRF 3.5 × 10^-10
[23] = Molar Conc. 4 × 10^-9, LRF 3.5 × 10^-10
[24] = Molar Conc. 7 × 10^-8, LRF 3.5 × 10^-10
[25] = Molar Conc. 7 × 10^-9, LRF 3.5 × 10^-10
[26] = Molar Conc. 1 × 10^-10, LRF 3.5 × 10^-10
[27] = Molar Conc. 2 × 10^-10, LRF 3.5 × 10^-10
[28] = Molar Conc. 3.5 × 10^-9, LRF 3.5 × 10^-10
[29] = Molar Conc. 3.5 × 10^-10, LRF 3.5 × 10^-10

Compound: LRF: luteinizing hormone releasing factor, also called luteinizing hormone releasing hormone (LH-RH); stimulates secretion of luteinizing hormone from the anterior pituitary (QHWSYGLRPG; Gonadoliberin-1; UniProt P01148 24-33, looked up) [reference compound]
- LH Value (LRF alone, Molar Conc. 3.5 × 10^-10 (control of each series)): 26.23 ng/mL and 40.92 ng/mL and 32.11 ng/mL
- LH Value (LRF alone, Molar Conc. 5 × 10^-10 (control of each series)): 71.56 ng/mL and 47.31 ng/mL and 52.80 ng/mL

Compound: CC[C@H](C)[C@H](NC(=O)OCc1ccccc1)C(=O)N[C@@H](Cc1c[nH]c2ccccc12)C(=O)N[C@@H](CO)C(=O)N[C@@H](Cc1ccc(O)cc1)C(=O)N[C@H](Cc1c[nH]c2ccccc12)C(=O)N[C@@H](CC(C)C)C(=O)N[C@@H](CCCNC(=N)N)C(=O)N1CCC[C@H]1C(=O)NCC(N)=O [N^α -Benzyloxycarbonyl-L-isoleucyl-L-tryptophyl-L-seryl-L-tyrosyl-D-tryptophyl-L-leucyl-L-arginyl-L-prolyl-glycinamide] (Cbz-IWSY[dW]LRPG-NH2)
- % LH Release Inhibition [1]: 96%
- LH Value [1]: 20.69 ng/mL
- % LH Release Inhibition [2]: 96%
- LH Value [2]: 20.24 ng/mL
- % LH Release Inhibition [3]: 96%
- LH Value [3]: 20.50 ng/mL
- % LH Release Inhibition [4]: 95%
- LH Value [4]: 21.04 ng/mL
- % LH Release Inhibition [5]: 98%
- LH Value [5]: 14.00 ng/mL
- % LH Release Inhibition [6]: 41%
- LH Value [6]: 36.46 ng/mL
- % LH Release Inhibition [7]: 70%
- LH Value [7]: 24.96 ng/mL
- % LH Release Inhibition [8]: 87%
- LH Value [8]: 18.49 ng/mL

Compound: CC(C)C[C@H](NC(=O)[C@@H](Cc1c[nH]c2ccccc12)NC(=O)[C@H](Cc1ccc(O)cc1)NC(=O)[C@H](CO)NC(=O)[C@H](Cc1c[nH]c2ccccc12)NC(=O)[C@H](COCc1ccccc1)NC(=O)OC(C)(C)C)C(=O)N[C@@H](CCCNC(=N)N)C(=O)N1CCC[C@H]1C(=O)NCC(N)=O [N^α -t-Butoxycarbonyl-O-benzyl-L-seryl-L-tryptophyl-L-seryl-L-tyrosyl-D-tryptophyl-L-leucyl-L-arginyl-L-prolyl-glycinamide] (Boc-S(Bn)WSY[dW]LRPG-NH2)
- % LH Release Inhibition [9]: 104%
- LH Value [9]: 8.96 ng/mL
- % LH Release Inhibition [10]: 64%
- LH Value [10]: 21.44 ng/mL
- % LH Release Inhibition [11]: 104%
- LH Value [11]: 8.95 ng/mL
- % LH Release Inhibition [12]: 72%
- LH Value [12]: 18.85 ng/mL
- % LH Release Inhibition [13]: 39%
- LH Value [13]: 29.05 ng/mL
- % LH Release Inhibition [14]: 108%
- LH Value [14]: 7.80 ng/mL
- % LH Release Inhibition [15]: 99%
- LH Value [15]: 10.64 ng/mL
- % LH Release Inhibition [16]: 50%
- LH Value [16]: 25.53 ng/mL

Compound: COc1ccc(COC(=O)N[C@@H](COCc2ccccc2)C(=O)N[C@@H](Cc2c[nH]c3ccccc23)C(=O)N[C@@H](CO)C(=O)N[C@@H](Cc2ccc(O)cc2)C(=O)N[C@H](Cc2ccccc2)C(=O)N[C@@H](CC(C)C)C(=O)N[C@@H](CCCNC(=N)N)C(=O)N2CCC[C@H]2C(=O)NCC(N)=O)cc1.Cl [N^α -p-Methoxybenzyloxycarbonyl-O-benzyl-L-seryl-L-tryptophyl-L-seryl-L-tyrosyl-D-phenylalanyl-L-leucyl-L-arginyl-L-prolyl-glycinamide hydrochloride] (X1-S(Bn)WSY[dF]LRPG-NH2)
- % LH Release Inhibition [3]: 99%
- LH Value [3]: 18.59 ng/mL
- % LH Release Inhibition [4]: 105%
- LH Value [4]: 15.95 ng/mL
- % LH Release Inhibition [5]: 88%
- LH Value [5]: 16.01 ng/mL
- % LH Release Inhibition [6]: 41%
- LH Value [6]: 32.94 ng/mL
- % LH Release Inhibition [17]: 35%
- LH Value [17]: 34.87 ng/mL
- % LH Release Inhibition [18]: 52%
- LH Value [18]: 28.95 ng/mL

Compound: CC(C)C[C@H](NC(=O)[C@@H](Cc1ccccc1)NC(=O)[C@H](Cc1ccc(O)cc1)NC(=O)[C@H](CO)NC(=O)[C@H](Cc1c[nH]c2ccccc12)NC(=O)[C@H](CCC(N)=O)NC(=O)OCc1ccccc1)C(=O)N[C@@H](CCCNC(=N)N)C(=O)N1CCC[C@H]1C(=O)NCC(N)=O [N^α -Benzyloxycarbonyl-L-glutaminyl-L-tryptophyl-L-seryl-L-tyrosyl-D-phenylalanyl-L-leucyl-L-arginyl-L-prolyl-glycinamide] (Cbz-QWSY[dF]LRPG-NH2)
- % LH Release Inhibition [19]: 71%
- LH Value [19]: 13.47 ng/mL
- % LH Release Inhibition [20]: 90%
- LH Value [20]: 10.07 ng/mL
- % LH Release Inhibition [21]: 21%
- LH Value [21]: 22.43 ng/mL
- % LH Release Inhibition [22]: 91%
- LH Value [22]: 9.79 ng/mL
- % LH Release Inhibition [23]: 30%
- LH Value [23]: 20.76 ng/mL
- % LH Release Inhibition [24]: 93%
- LH Value [24]: 9.49 ng/mL
- % LH Release Inhibition [25]: 42%
- LH Value [25]: 18.60 ng/mL

Compound: CC(C)C[C@H](NC(=O)[C@@H](Cc1ccccc1)NC(=O)[C@H](Cc1ccc(O)cc1)NC(=O)[C@H](CO)NC(=O)[C@H](Cc1c[nH]c2ccccc12)NC(=O)[C@H](COCc1ccccc1)NC(=O)OCc1ccccc1)C(=O)N[C@@H](CCCNC(=N)N)C(=O)N1CCC[C@H]1C(=O)NCC(N)=O.Cl [N^α -Benzyloxycarbonyl-O-benzyl-L-seryl-L-tryptophyl-L-seryl-L-tyrosyl-D-phenylalanyl-L-leucyl-L-arginyl-L-prolyl-glycinamide hydrochloride] (Cbz-S(Bn)WSY[dF]LRPG-NH2)
- % LH Release Inhibition [10]: 56%
- LH Value [10]: 17.85 ng/mL
- % LH Release Inhibition [26]: 0%
- LH Value [26]: 34.50 ng/mL
- % LH Release Inhibition [21]: 88%
- LH Value [21]: 9.84 ng/mL
- % LH Release Inhibition [27]: 14%
- LH Value [27]: 28.47 ng/mL
- % LH Release Inhibition [28]: 99%
- LH Value [28]: 6.96 ng/mL
- % LH Release Inhibition [29]: 36%
- LH Value [29]: 23.09 ng/mL
- % LH Release Inhibition [15]: 109%
- LH Value [15]: 4.59 ng/mL
- % LH Release Inhibition [16]: 52%
- LH Value [16]: 18.89 ng/mL

— patent US4086219A, “Nonapeptides and methods for their production” (Parke, Davis & Company, priority 1976, dated 1978)
